Where a SMILES comes first, the peptide text is derived from it. Bridges are numbered along the chain shown (N, C = ends). [ ]: non-standard residue; d: D form. 2Nal = N[C@@H](Cc1ccc2ccccc2c1)C(=O)O; hArg = N=C(N)NCCCC[C@H](N)C(=O)O; tBuAla = CC(C)(C)C[C@H](N)C(=O)O; NMeQ = CN[C@@H](CCC(N)=O)C(=O)O; Cha = N[C@@H](CC1CCCCC1)C(=O)O; Cba = N[C@@H](CC1CCC1)C(=O)O; Tle = CC(C)(C)[C@H](N)C(=O)O; S5 = C=CCCC[C@](C)(N)C(=O)O
System: Colo320DM
Assay: Colo320DM cell viability
Format: cell-based, human
Source text: In some embodiments, a polypeptide described herein inhibits binding of BLC9 to β-catenin when assessed in a cell-viability assay. In some embodiments, the cell-viability assay is a CellTiterGlo luminescent assay, wherein the viability of cells is quantitatively measured. Various cell lines, transformed cell lines or primary cells derived from a healthy subject or subject suffering from a disease can be used in this assay.

SMILES	IC50 [µM]
CC[C@H](C)[C@@H]1NC(=O)[C@@](C)(NC(=O)[C@H](CCCNC(=N)N)NC(=O)[C@H](CC(C)C)NC(=O)[C@@H](NC(=O)[C@H](CCC(N)=O)NC(=O)[C@H](CC(C)C)NC(=O)[C@H](CO)NC(=O)[C@H](CCCNC(=N)N)NC(=O)[C@H](CCC(N)=O)N(C)C(=O)[C@H](CCCNC(=N)N)NC(=O)[C@H](Cc2c[nH]cn2)NC(C)=O)[C@@H](C)O)CCCC=CCCC[C@@](C)(C(=O)N[C@H](C(=O)N[C@@H](Cc2ccc3ccccc3c2)C(N)=O)C(C)(C)C)NC(=O)[C@H](CCCNC(=N)N)NC(=O)[C@H](CCC(N)=O)NC1=O [SEQ ID NO: 194, HR(N-MeGln)RSLQTLRXIQRX(Tle)(2-Nal)] (Ac-HR[NMeQ]RSLQTLR[S5]IQR[S5][Tle][2Nal]-NH2; staple 11-15)	3.75
CC[C@H](C)[C@@H]1NC(=O)[C@@](C)(NC(=O)[C@H](CCCNC(=N)N)NC(=O)[C@H](CC(C)C)NC(=O)[C@@H](NC(=O)[C@H](CCC(N)=O)NC(=O)[C@H](CC(C)C)NC(=O)[C@H](CO)NC(=O)[C@H](CCCNC(=N)N)NC(=O)[C@H](CCC(N)=O)NC(=O)[C@H](CCCNC(=N)N)NC(=O)[C@H](Cc2c[nH]cn2)NC(C)=O)[C@@H](C)O)CCCC=CCCC[C@@](C)(C(=O)N[C@@H](CC(C)(C)C)C(=O)N[C@@H](Cc2ccc3ccccc3c2)C(N)=O)NC(=O)[C@H](CCCNC(=N)N)NC(=O)[C@H](CCC(N)=O)NC1=O [SEQ ID NO: 191, HRQRSLQTLRXIQRX(β-tBu-Ala)(2-Nal)] (Ac-HRQRSLQTLR[S5]IQR[S5][tBuAla][2Nal]-NH2; staple 11-15)	2.87
CCCCCCCCCCCCCCCC(=O)NCCOCCOCCOCCOCCC(=O)NCCCC[C@H](NC(=O)[C@H](Cc1ccc2ccccc2c1)NC(=O)[C@H](CC1CCC1)NC(=O)[C@]1(C)CCCC=CCCC[C@](C)(NC(=O)[C@H](CCCNC(=N)N)NC(=O)[C@H](CC(C)C)NC(=O)[C@@H](NC(=O)[C@H](CCC(N)=O)NC(=O)[C@H](CC(C)C)NC(=O)[C@H](CO)NC(=O)[C@H](CCCNC(=N)N)NC(=O)[C@H](CCC(N)=O)NC(=O)[C@H](CCCNC(=N)N)NC(=O)[C@H](Cc2c[nH]cn2)NC(C)=O)[C@@H](C)O)C(=O)N[C@@H]([C@@H](C)CC)C(=O)N[C@@H](CCC(N)=O)C(=O)N[C@@H](CCCNC(=N)N)C(=O)N1)C(N)=O [SEQ ID NO: 161, HRQRSLQTLRXIQRX(CBA)(2-Nal)]	3.35
CC[C@H](C)[C@@H]1NC(=O)[C@@](C)(NC(=O)[C@H](CCCNC(=N)N)NC(=O)[C@H](CC(C)C)NC(=O)[C@@H](NC(=O)[C@H](CCC(N)=O)NC(=O)[C@H](CC(C)C)NC(=O)[C@H](CO)NC(=O)[C@H](CCCNC(=N)N)NC(=O)[C@H](CCC(N)=O)NC(=O)[C@H](CCCCNC(=N)N)NC(=O)[C@H](Cc2c[nH]cn2)NC(C)=O)[C@@H](C)O)CCCC=CCCC[C@@](C)(C(=O)N[C@@H](CC2CCCCC2)C(=O)N[C@@H](Cc2ccc3ccccc3c2)C(N)=O)NC(=O)[C@H](CCCNC(=N)N)NC(=O)[C@H](CCC(N)=O)NC1=O [SEQ ID NO: 183, H(homoArg)QRSLQTLRXIQRX(Cha)(2-Nal)] (Ac-H[hArg]QRSLQTLR[S5]IQR[S5][Cha][2Nal]-NH2; staple 11-15)	2.53
CC[C@H](C)[C@@H]1NC(=O)[C@@](C)(NC(=O)[C@H](CCCCNC(=N)N)NC(=O)[C@H](CC(C)C)NC(=O)[C@@H](NC(=O)[C@H](CCC(N)=O)NC(=O)[C@H](CC(C)C)NC(=O)[C@H](CO)NC(=O)[C@H](CCCNC(=N)N)NC(=O)[C@H](CCC(N)=O)NC(=O)[C@H](CCCNC(=N)N)NC(=O)[C@H](Cc2c[nH]cn2)NC(C)=O)[C@@H](C)O)CCCC=CCCC[C@@](C)(C(=O)N[C@@H](CC2CCC2)C(=O)N[C@@H](Cc2ccc3ccccc3c2)C(N)=O)NC(=O)[C@H](CCCNC(=N)N)NC(=O)[C@H](CCC(N)=O)NC1=O [SEQ ID NO: 170, HRQRSLQTL(homoR)XIQRX(CBA)(2-Nal)] (Ac-HRQRSLQTL[hArg][S5]IQR[S5][Cba][2Nal]-NH2; staple 11-15)	5.17
